Data: paper PMC10307885, “A Phase 1/2 trial of SRA737 (a Chk1 inhibitor) administered orally in patients with advanced cancer” (British Journal of Cancer, 2023)

Tests used:
[1] = test system: patients with advanced cancer; settings: in combination with low-dose gemcitabine; anogenital, cervical, high-grade serous ovarian, rectal and small cell lung cancer; cited from earlier work
[2] = test system: patients with advanced solid tumours; experiment: Phase 1/2 dose-escalation/expansion study: safety, TEAEs (NCI CTCAE v4.03), DLT, MTD, RP2D; format: in vivo
Source text: The objectives of this first-in-human, Phase 1/2, open-label, dose-escalation study of SRA737 as a single agent were to establish the safety profile, define the maximum tolerated dose (MTD) and the recommended Phase 2 dose (RP2D) and schedule, and to evaluate preliminary efficacy in prospectively selected genetically defined patients enrolled in indication-specific expansion cohorts. Secondary objectives included defining the pharmacokinetic (PK) profile of SRA737.
The study used an accelerated titration design in dose escalation beginning with single subject dose-level cohorts. Doubling of the SRA737 dose was permitted in the subsequent cohort if a dose level was determined to be safe by the cohort review committee consisting of the lead investigator, study investigators representing the site(s) currently enrolling patients, and representatives of the study sponsor. In the event of any SRA737-related adverse event Grade 2 or greater toxicity during Cycle 1, the cohort was to be expanded to 3 to 6 subjects. Thereafter the study followed a rolling 6 design wherein once the first subject completed the 7-day observation period following the first dose of SRA737, subsequent subjects in that cohort started treatment. […] Enrolment of expansion cohorts at the highest dose level determined to be safe and tolerable was initiated prior to the completion of dose escalation and determination of MTD or RP2D.
A single dose of SRA737 was given at one visit on Day −7 to Day −4 (prior to the start of Cycle 1) for PK assessments. SRA737 was then administered orally on a continuous daily dosing schedule in 28-day cycles. An accelerated titration design was used with single-patient dose-escalation cohorts starting with 20 mg SRA737 administered once daily (QD) in the first cohort, with dose doubling in subsequent single-patient cohorts. If a patient had SRA737-related Grade 2 toxicity in a dose level cohort during Cycle 1, that cohort was expanded to 3 to 6 patients, and subsequent cohorts followed a rolling six design.
Patients were assessed for DLT from the first SRA737 dose (Day −7 to Day −4) until the end of Cycle 1 (up to 35 days).
Expansion cohorts including up to 20 patients with one of the 6 specified indication-specific tumour types, were treated at SRA737 doses selected by the cohort review committee based on all available safety and PK data; expansion doses were at or below the maximum tolerated dose (MTD) from the dose-escalation phase. Patients could continue treatment until disease progression or discontinuation from study due to unacceptable toxicity, investigator/sponsor decision, or withdrawal of consent.
Safety assessments including adverse events, laboratory parameters, electrocardiograms (ECGs), and echocardiograms were conducted throughout treatment and until 30 days after the last study treatment or initiation of new anticancer treatment.
The Safety Evaluable population included all patients who received at least one dose of SRA737.
The DLT window is defined from the first dose (Day -7 to Day -4) until the end of Cycle 1 (up to 35 days).
A DLT is defined as any highly probably or probably SRA737-related event of: […]

[3] = 1300 mg QD cohort, three patients enrolled
[4] = 49 patients treated at SRA737 doses >800 mg QD
[5] = irrespective of SRA737 dose level, any grade

N#Cc1cnc(Nc2cc(NC[C@H]3CNCCO3)c(C(F)(F)F)cn2)cn1 [SRA737, (R)-5-((4-((morpholin-2-ylmethyl)amino)-5-(trifluoromethyl)pyridin-2-yl)amino)pyr azine-2-carbonitrile]
RECIST tumour responses [1]: RECIST partial tumour responses were observed
Dose-limiting toxicity (DLT) ([2]; 500 mg BID, one patient, four evaluable for DLT): Grade 4 thrombocytopenia
Grade 1–2 TEAEs of diarrhoea ([2]; 800 mg SRA737 dose level): 68 % of patients
Grade 1–2 TEAEs of nausea ([2]; 800 mg SRA737 dose level): 78 % of patients
Grade 1–2 TEAEs of vomiting ([2]; 800 mg SRA737 dose level): 50 % of patients
patients with Grade 3 diarrhoea (GI toxicity above Grade 2) ([2]; 800 mg dose level): one
Dose-limiting toxicities (DLTs) ([2]; 1000 mg QD dose-escalation cohort (or any lower-dose cohorts)): No DLTs
patients requiring dose reduction to 600 mg due to GI intolerability ([2]; 1000 mg QD, 10 evaluable patients): 3 patients
Grade 1–2 TEAEs of diarrhoea ([2]; 1000 mg SRA737 dose level): 72 % of patients
Grade 1–2 TEAEs of nausea ([2]; 1000 mg SRA737 dose level): 65 % of patients
Grade 1–2 TEAEs of vomiting ([2]; 1000 mg SRA737 dose level): 63 % of patients
patients with Grade 3 diarrhoea (GI toxicity above Grade 2) ([2]; 1000 mg dose level): 1 patient
patients with both Grade 3 nausea and vomiting ([2]; 1000 mg dose level): single patient
patients with dose-limiting GI intolerability (Grade 1–2 nausea, vomiting, and/or diarrhoea) [2, 3]: 2 patients
patients with dose-limiting Grade 3 neutropenia [2, 3]: 1 patient
discontinued due to SRA737-related TEAEs ([2]; 16 patients of 107): 15.0%
Adverse events leading to treatment discontinuation ([2]; 34 patients of 107): 31.8%
Grade 3 or higher TEAE related to SRA737: fatigue [2, 4]: 4%
Grade 3 or higher TEAE related to SRA737: neutropenia [2, 4]: 10%
Grade 3 or higher TEAE related to SRA737: rash/rash maculopapular combined [2, 4]: 6%
Any SRA737-related Grade ≥3 treatment-emergent adverse event (TEAE) ([2]; Overall (N = 107)): 33 (30.8) n (%)
Any SRA737-related treatment-emergent adverse event (TEAE), any grade ([2]; Overall (N = 107)): 98 (91.6) n (%)
SRA737-related TEAE of Grade 3 or higher: Aspartate aminotransferase increased ([2]; Overall (N = 107)): 2 (1.9) n (%)
SRA737-related TEAE of Grade 3 or higher: Diarrhoea ([2]; Overall (N = 107)): 2 (1.9) n (%)
SRA737-related TEAE of Grade 3 or higher: Dyspnoea ([2]; Overall (N = 107)): 2 (1.9) n (%)
SRA737-related TEAE of Grade 3 or higher: Fatigue ([2]; Overall (N = 107)): 2 (1.9) n (%)
SRA737-related TEAE of Grade 3 or higher: Lymphocyte count decreased ([2]; Overall (N = 107)): 3 (2.8) n (%)
SRA737-related TEAE of Grade 3 or higher: Neutropenia ([2]; Overall (N = 107)): 9 (8.4) n (%)
SRA737-related TEAE of Grade 3 or higher: Rash ([2]; Overall (N = 107)): 3 (2.8) n (%)
SRA737-related TEAE of Grade 3 or higher: Rash maculopapular ([2]; Overall (N = 107)): 3 (2.8) n (%)
SRA737-related TEAE of Grade 3 or higher: Thrombocytopenia ([2]; Overall (N = 107)): 3 (2.8) n (%)
SRA737-related TEAE of any grade: Anaemia ([2]; Overall (N = 107)): 16 (15.0) n (%)
SRA737-related TEAE of any grade: Decreased Appetite ([2]; Overall (N = 107)): 19 (17.8) n (%)
SRA737-related TEAE of any grade: Diarrhoea ([2]; Overall (N = 107)): 67 (62.6) n (%)
SRA737-related TEAE of any grade: Fatigue ([2]; Overall (N = 107)): 41 (38.3) n (%)
SRA737-related TEAE of any grade: Nausea ([2]; Overall (N = 107)): 64 (59.8) n (%)
SRA737-related TEAE of any grade: Neutropenia ([2]; Overall (N = 107)): 17 (15.9) n (%)
SRA737-related TEAE of any grade: Vomiting ([2]; Overall (N = 107)): 49 (45.8) n (%)
Any SRA737-related Grade ≥3 treatment-emergent adverse event (TEAE) ([2]; SRA737 dose > 800 mg (N = 49)): 19 (38.8) n (%)
Any SRA737-related treatment-emergent adverse event (TEAE), any grade ([2]; SRA737 dose > 800 mg (N = 49)): 47 (95.9) n (%)
SRA737-related TEAE of Grade 3 or higher: Aspartate aminotransferase increased ([2]; SRA737 dose > 800 mg (N = 49)): 0 n (%)
SRA737-related TEAE of Grade 3 or higher: Diarrhoea ([2]; SRA737 dose > 800 mg (N = 49)): 1 (2.0) n (%)
SRA737-related TEAE of Grade 3 or higher: Dyspnoea ([2]; SRA737 dose > 800 mg (N = 49)): 0 n (%)
SRA737-related TEAE of Grade 3 or higher: Fatigue ([2]; SRA737 dose > 800 mg (N = 49)): 2 (4.1) n (%)
SRA737-related TEAE of Grade 3 or higher: Lymphocyte count decreased ([2]; SRA737 dose > 800 mg (N = 49)): 0 n (%)
SRA737-related TEAE of Grade 3 or higher: Neutropenia ([2]; SRA737 dose > 800 mg (N = 49)): 5 (10.2) n (%)
SRA737-related TEAE of Grade 3 or higher: Rash ([2]; SRA737 dose > 800 mg (N = 49)): 1 (2.0) n (%)
SRA737-related TEAE of Grade 3 or higher: Rash maculopapular ([2]; SRA737 dose > 800 mg (N = 49)): 2 (4.1) n (%)
SRA737-related TEAE of Grade 3 or higher: Thrombocytopenia ([2]; SRA737 dose > 800 mg (N = 49)): 1 (2.0) n (%)
SRA737-related TEAE of any grade: Anaemia ([2]; SRA737 dose > 800 mg (N = 49)): 11 (22.4) n (%)
SRA737-related TEAE of any grade: Decreased Appetite ([2]; SRA737 dose > 800 mg (N = 49)): 7 (14.3) n (%)
SRA737-related TEAE of any grade: Diarrhoea ([2]; SRA737 dose > 800 mg (N = 49)): 34 (69.4) n (%)
SRA737-related TEAE of any grade: Fatigue ([2]; SRA737 dose > 800 mg (N = 49)): 27 (55.1) n (%)
SRA737-related TEAE of any grade: Nausea ([2]; SRA737 dose > 800 mg (N = 49)): 32 (65.3) n (%)
SRA737-related TEAE of any grade: Neutropenia ([2]; SRA737 dose > 800 mg (N = 49)): 7 (14.3) n (%)
SRA737-related TEAE of any grade: Vomiting ([2]; SRA737 dose > 800 mg (N = 49)): 28 (57.1) n (%)
Any SRA737-related Grade ≥3 treatment-emergent adverse event (TEAE) ([2]; SRA737 dose ≤ 800 mg (N = 58)): 14 (24.1) n (%)
Any SRA737-related treatment-emergent adverse event (TEAE), any grade ([2]; SRA737 dose ≤ 800 mg (N = 58)): 51 (87.9) n (%)
SRA737-related TEAE of Grade 3 or higher: Aspartate aminotransferase increased ([2]; SRA737 dose ≤ 800 mg (N = 58)): 2 (3.4) n (%)
SRA737-related TEAE of Grade 3 or higher: Diarrhoea ([2]; SRA737 dose ≤ 800 mg (N = 58)): 1 (1.7) n (%)
SRA737-related TEAE of Grade 3 or higher: Dyspnoea ([2]; SRA737 dose ≤ 800 mg (N = 58)): 2 (3.4) n (%)
SRA737-related TEAE of Grade 3 or higher: Fatigue ([2]; SRA737 dose ≤ 800 mg (N = 58)): 0 n (%)
SRA737-related TEAE of Grade 3 or higher: Lymphocyte count decreased ([2]; SRA737 dose ≤ 800 mg (N = 58)): 3 (5.2) n (%)
SRA737-related TEAE of Grade 3 or higher: Neutropenia ([2]; SRA737 dose ≤ 800 mg (N = 58)): 4 (6.9) n (%)
SRA737-related TEAE of Grade 3 or higher: Rash ([2]; SRA737 dose ≤ 800 mg (N = 58)): 2 (3.4) n (%)
SRA737-related TEAE of Grade 3 or higher: Rash maculopapular ([2]; SRA737 dose ≤ 800 mg (N = 58)): 1 (1.7) n (%)
SRA737-related TEAE of Grade 3 or higher: Thrombocytopenia ([2]; SRA737 dose ≤ 800 mg (N = 58)): 2 (3.4) n (%)
SRA737-related TEAE of any grade: Anaemia ([2]; SRA737 dose ≤ 800 mg (N = 58)): 5 (8.6) n (%)
SRA737-related TEAE of any grade: Decreased Appetite ([2]; SRA737 dose ≤ 800 mg (N = 58)): 12 (20.7) n (%)
SRA737-related TEAE of any grade: Diarrhoea ([2]; SRA737 dose ≤ 800 mg (N = 58)): 33 (56.9) n (%)
SRA737-related TEAE of any grade: Fatigue ([2]; SRA737 dose ≤ 800 mg (N = 58)): 14 (24.1) n (%)
SRA737-related TEAE of any grade: Nausea ([2]; SRA737 dose ≤ 800 mg (N = 58)): 32 (55.2) n (%)
SRA737-related TEAE of any grade: Neutropenia ([2]; SRA737 dose ≤ 800 mg (N = 58)): 10 (17.2) n (%)
SRA737-related TEAE of any grade: Vomiting ([2]; SRA737 dose ≤ 800 mg (N = 58)): 21 (36.2) n (%)
Grade 3 or higher neutropenia rate ([2]; current study, overall): 8%
Dose-limiting toxicity, events included ([2]; daily doses of 1000 and 1300 mg QD): gastrointestinal events, neutropenia and thrombocytopenia
patients who tolerated the dose but required anti-emetic medication and/or night-time dosing ([2]; human, in vivo): 7 patients
Fatal adverse events attributed to SRA737 ([2]; in vivo): none
Fatal adverse events reported ([2]; in vivo): ten
TEAE attributed to SRA737: anaemia [2, 5]: 15%
TEAE attributed to SRA737: decreased appetite [2, 5]: 18%
TEAE attributed to SRA737: diarrhoea [2, 5]: 63%
TEAE attributed to SRA737: fatigue [2, 5]: 38%
TEAE attributed to SRA737: nausea [2, 5]: 60%
TEAE attributed to SRA737: neutropenia [2, 5]: 16%
TEAE attributed to SRA737: vomiting [2, 5]: 46%
recommended Phase 2 dose (RP2D) ([2]; oral monotherapy): 800 mg QD
maximum tolerated dose (MTD) ([2]; oral monotherapy, continuous daily dosing, 28-day cycles): 1000 mg QD
GI events (diarrhoea, nausea, vomiting) reported at Grade 3 or higher severity ([2]; patients treated at 800 mg QD or higher): less than 5 % of patients
